Assay results: PubChem BioAssay AID1053155 (Broad Institute, 2014)

Target: Low-density lipoprotein receptor (Homo sapiens) (UniProt P01130)
Assay: increase of LDL receptor protein in hepatoma cells – cell-based, HepG2, ELISA, plate reader, cherry-pick, orthogonal assay for Trib1 inducer project, dose response (AID 1053155)
Conditions: HepG2 LDLR protein ELISA, 24 h; for fold induction: measured here: max LDLR protein fold induction, stronger effect = higher value

Sequence of Low-density lipoprotein receptor (Homo sapiens) (P01130 whole entry, looked up): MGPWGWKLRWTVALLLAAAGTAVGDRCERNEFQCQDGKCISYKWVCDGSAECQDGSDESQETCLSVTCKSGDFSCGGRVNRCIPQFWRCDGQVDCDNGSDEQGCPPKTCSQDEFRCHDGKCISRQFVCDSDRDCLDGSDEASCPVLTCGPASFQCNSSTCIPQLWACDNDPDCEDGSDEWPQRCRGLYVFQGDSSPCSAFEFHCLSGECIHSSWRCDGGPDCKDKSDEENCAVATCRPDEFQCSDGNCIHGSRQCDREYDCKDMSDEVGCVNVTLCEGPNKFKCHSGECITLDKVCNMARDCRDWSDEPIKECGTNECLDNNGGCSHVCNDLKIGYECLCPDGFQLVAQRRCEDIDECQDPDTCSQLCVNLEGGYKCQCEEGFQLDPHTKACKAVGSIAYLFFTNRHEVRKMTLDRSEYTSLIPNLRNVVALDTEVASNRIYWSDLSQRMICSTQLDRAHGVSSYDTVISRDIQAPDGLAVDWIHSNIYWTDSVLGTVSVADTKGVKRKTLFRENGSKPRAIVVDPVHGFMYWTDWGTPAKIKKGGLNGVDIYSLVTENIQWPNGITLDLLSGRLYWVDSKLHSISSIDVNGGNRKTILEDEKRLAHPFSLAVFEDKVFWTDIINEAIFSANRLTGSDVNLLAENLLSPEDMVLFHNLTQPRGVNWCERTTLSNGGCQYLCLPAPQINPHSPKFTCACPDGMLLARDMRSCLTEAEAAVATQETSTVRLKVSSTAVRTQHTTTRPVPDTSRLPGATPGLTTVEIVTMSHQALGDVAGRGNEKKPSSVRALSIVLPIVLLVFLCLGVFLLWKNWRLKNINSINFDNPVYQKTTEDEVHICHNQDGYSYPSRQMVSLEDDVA

| SMILES | AC50 [µM] | fold induction |
| --- | --- | --- |
| CN1C(=O)c2cc(NC(=O)c3ccc(C(F)(F)F)cc3)ccc2OC[C@@H]2O[C@@H](CC(=O)NC3Cc4ccccc4C3)CC[C@@H]21 | 18 | 3.3 |
| CN1C(=O)c2cc(NC(=O)c3ccc(C(F)(F)F)cc3)ccc2OC[C@@H]2O[C@H](CC(=O)NC3Cc4ccccc4C3)CC[C@@H]21 | 0.55 | 4.6 |
